Data as given in paper PMC8758481, “Astroglial tracer BU99008 detects multiple binding sites in Alzheimer’s disease brain” (Molecular Psychiatry, 2021).
Where two headings read alike, the source gives them in different places.

Key:
[1] = target: imidazoline-2 binding sites (I2BS); experiment: ^3H-BU99008 competition binding assay with unlabelled ligands in temporal cortex brain homogenate; parameters: species or system human
Experimental: (§1) After 1 h incubation a similar protocol as saturation binding assay was done and the binding was quantified using the scintillation counter.
(§2) The competition binding data was fitted and analysed using non-linear regression competitive-binding function of GraphPad Prism 8.3 software to determine IC50 (half-maximal inhibitory concentration) values.

[2] = system: imidazoline-2 binding sites (I2BS); parameters: method as in PMID 29523627, PMID 24711648; conditions: rhesus brain, dose-dependent; ref [43], [51]; cited from earlier work
[3] = target: imidazoline-2 binding sites (I2BS); experiment: ^3H-BU99008 competition binding with unlabelled BU99008 in the presence of MAO B inhibitors; parameters: species or system human; conditions: for IC50: unlabelled BU99008 alone
Experimental: A similar protocol as saturation binding assay was performed after 1 h incubation and the binding was quantified using the scintillation counter.
as §2

[4] = target: T1, monoamine oxidase B (MAO B) (Homo sapiens, UniProt P27338); experiment: ^3H-Deprenyl competition binding assay in temporal cortex brain homogenate; conditions: for IC50: vs 10 nM ^3H-Deprenyl, two-site fit
T1 construct: from tissue; host or cells: large frozen postmortem human brain sections (control, sporadic AD, AβPParc carrier)
T1 sequence (P27338 1-520): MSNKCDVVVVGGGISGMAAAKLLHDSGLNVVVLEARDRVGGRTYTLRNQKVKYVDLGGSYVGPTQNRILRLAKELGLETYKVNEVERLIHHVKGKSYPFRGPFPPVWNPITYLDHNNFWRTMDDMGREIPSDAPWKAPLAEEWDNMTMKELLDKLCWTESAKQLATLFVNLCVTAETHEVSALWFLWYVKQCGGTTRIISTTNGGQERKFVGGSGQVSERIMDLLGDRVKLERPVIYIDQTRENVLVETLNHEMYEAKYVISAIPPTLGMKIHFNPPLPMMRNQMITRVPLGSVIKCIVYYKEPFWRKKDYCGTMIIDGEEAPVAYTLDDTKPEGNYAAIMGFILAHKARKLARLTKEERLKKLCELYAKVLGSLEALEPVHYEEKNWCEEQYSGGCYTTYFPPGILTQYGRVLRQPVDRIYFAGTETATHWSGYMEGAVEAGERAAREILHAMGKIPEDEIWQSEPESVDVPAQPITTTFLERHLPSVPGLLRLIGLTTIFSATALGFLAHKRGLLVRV
Experimental: as §1, §2

[5] = system: imidazoline-2 binding sites (I2BS); parameters: method as in PMID 29523627; conditions: human brain, pretreatment, highest dose of 80 mg; ref [43]; cited from earlier work
[6] = AD temporal cortex, vs 1 nM ^3H-BU99008, two-site fit, read-out: IC50_1
[7] = AD temporal cortex, vs 1 nM ^3H-BU99008, two-site fit, read-out: IC50_2
[8] = CN temporal cortex, vs 1 nM ^3H-BU99008, two-site fit, read-out: IC50_1
[9] = CN temporal cortex, vs 1 nM ^3H-BU99008, two-site fit, read-out: IC50_2

SMILES	IC50 [1, 6]	IC50 [1, 7]	IC50 [1, 8]	IC50 [1, 9]	proportion of High-affinity (HA; 10^-10 to -9 M) binding sites ([1]; CN, ^3H-BU99008 competition)	proportion of Low-affinity (LA; 10^-7 to -6 M) binding sites ([1]; CN, ^3H-BU99008 competition)	proportion of Low-affinity (LA; 10^-7 to -6 M) binding sites ([1]; AD, ^3H-BU99008 competition)	proportion of Super high-affinity (SH; 10^-13 to -11 M) binding sites ([1]; CN, ^3H-BU99008 competition)	also measured
Cl.c1ccc2oc(C3=NCCN3)cc2c1 [2-BFI, 2-(Benzofuran-2-yl)-2-imidazoline hydrochloride]	0.041 nM	165 nM	0.34 nM	150 nM	18%	82%	–	–	proportion of Super high-affinity (SH; 10^-13 to -11 M) binding sites ([1]; AD, ^3H-BU99008 competition): 19%
Cl.c1ccc2nc(C3=NCCN3)ccc2c1 [BU224, 2-(4,5-Dihydroimidazol-2-yl)quinoline hydrochloride]	–	–	0.026 nM	186 nM	–	56%	100%	44%	^11C-BU99008 signal throughout the brain after pretreatment [2]: significantly reduced; IC50 ([1]; AD temporal cortex, vs 1 nM ^3H-BU99008, single binding site, read-out: IC50): 416 nM
Cn1c(C2=NCCN2)cc2ccccc21 [BU99008, 2-(4,5-dihydro-1H-imidazol-2-yl)-1-methyl-1H-indole]	1.43 nM	342 nM	–	2.45 nM	75%	–	22%	25%	IC50 ([3]; AD (85 years), one-site, read-out: IC50): 1.73 nM; IC50 ([3]; CN (71 years), vs 1 nM ^3H-BU99008, read-out: IC50_2 (HA)): 2.81 nM; proportion of High-affinity (HA; 10^-10 to -9 M) binding sites ([1]; AD, ^3H-BU99008 competition): 78%; majority of binding to HA binding sites ([1]; both CN and AD cases, ^3H-BU99008 competition): 75–78%; majority of binding to LA sites [4]: 70–78%; IC50 ([4]; AD temporal cortex, read-out: IC50_1): 0.002 nM; IC50 ([4]; AD temporal cortex, read-out: IC50_2): 254 nM; IC50 ([4]; CN temporal cortex, read-out: IC50_1): 0.72 nM; IC50 ([4]; CN temporal cortex, read-out: IC50_2): 3110 nM
c1ccc2c(c1)OCC(C1=NCCN1)O2 (stereo not drawn) [idazoxan]	–	–	–	–	–	–	–	–	average block of ^11C-BU99008 uptake across all regions [5]: 60%
C[C@H](NCc1ccc(OCc2cccc(F)c2)cc1)C(N)=O [safinamide]	–	–	–	–	–	–	–	–	effect on binding of BU99008 to the SH binding sites ([3]; CN, ^3H-BU99008 competition): completely blocked; decrease in ^3H-BU99008 total binding ([3]; CN, lower concentration ranges [10^-14-10^-9]): 15–30%; effect on binding of BU99008 to HA binding sites ([3]; both CN and AD cases, increasing concentrations of inhibitor): not affected
